In PubChem BioAssay (NCI):
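Cultured in 96-well plates, cells were exposed to test compound for 48 hours across five concentrations. GI50 is the concentration that inhibits growth by half. At the TGI there is no net growth.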

Key:
Test in all cases: growth of human tumour cells (NCI), 48 h
A498 renal = system: A498 renal
HOP-62 NSCLC = system: HOP-62 NSCLC
IGROV1 ovarian = system: IGROV1 ovarian
MCF7 breast = system: MCF7 breast
MDA-MB-231 breast = system: MDA-MB-231 breast
NCI-H522 lung = system: NCI-H522 lung
OVCAR-5 ovarian = system: OVCAR-5 ovarian
PC-3 prostate = system: PC-3 prostate
RXF 393 renal = system: RXF 393 renal
SK-MEL-5 melanoma = system: SK-MEL-5 melanoma

| SMILES | GI50 (A498 renal) [µM] | TGI (A498 renal) [µM] | GI50 (HOP-62 NSCLC) [µM] | TGI (HOP-62 NSCLC) [µM] | GI50 (IGROV1 ovarian) [µM] | TGI (IGROV1 ovarian) [µM] | GI50 (MCF7 breast) [µM] | TGI (MCF7 breast) [µM] | GI50 (MDA-MB-231 breast) [µM] | TGI (MDA-MB-231 breast) [µM] | GI50 (NCI-H522 lung) [µM] | TGI (NCI-H522 lung) [µM] | GI50 (OVCAR-5 ovarian) [µM] | TGI (OVCAR-5 ovarian) [µM] | GI50 (PC-3 prostate) [µM] | TGI (PC-3 prostate) [µM] | GI50 (RXF 393 renal) [µM] | TGI (RXF 393 renal) [µM] | GI50 (SK-MEL-5 melanoma) [µM] | TGI (SK-MEL-5 melanoma) [µM] |
| --- | --- | --- | --- | --- | --- | --- | --- | --- | --- | --- | --- | --- | --- | --- | --- | --- | --- | --- | --- | --- |
| CN(C)CCn1cc(-c2ccc3c(Nc4ccc(CC(=O)Nc5cccc(F)c5)cc4)ncnc3c2)cn1 | > 10 | > 10 | > 10 | > 10 | 2.01 | 6.41 | 1.21 | 3.55 | 1.55 | 3.35 | 1.32 | 3.22 | 1.58 | 4.26 | 1.75 | 7.92 | 1.35 | 2.84 | > 10 | > 10 |
| O=C1/C(=C/c2ccc(O)cc2)CCC1CNc1ccc(Cl)cc1 (stereo not given) | – | 28.4 | – | 20.7 | – | 15.1 | – | 6.82 | – | 9.56 | – | 2.49 | – | 23.5 | – | 18.2 | – | 15.6 | – | 20.8 |
| O=C1c2cccc3cccc(c23)C(=O)N1CCCCOc1ccc(-c2nc3ccc(N4CCOCC4)cc3[nH]2)cc1 | 3.38 | 20.2 | 2.47 | 5.9 | 11.1 | 66.9 | 2.92 | 12.8 | 3.27 | 10.5 | 15.1 | 41.2 | 18.9 | 34.9 | 3.16 | 23.6 | 0.547 | 3 | 1.6 | 3.06 |
| CCCCCCCCSC1=CC(=O)C(OC)=C(OC)C1=O | 6.13 | 20.4 | 11.1 | 24.4 | 5.66 | 23.4 | 1.91 | 14.1 | 3.5 | 8.16 | 0.326 | 1.49 | 4.25 | 16.7 | 6.24 | 23.3 | 1.61 | 3.46 | 1.6 | 8.79 |
| CCCCOC(=O)N[C@H]1CCc2cc(OC)c(OC)c(OC)c2-c2ccc(SC)c(=O)cc21 | – | 27.6 | – | 40.3 | – | 92.5 | – | 26 | – | 2.8 | – | < 0.01 | – | 91.8 | – | > 81 | – | 2.07 | – | < 0.01 |
| CCOc1ccc2c(c1)/C(=C\C=C\C1CC(C)C3CC(OCC)CCC3N1CC)CC(C)N2CC (stereo not given) | 0.378 | 1.83 | 0.755 | 2.25 | 1.11 | 3.13 | 0.627 | 2.43 | 1.22 | 2.92 | 0.852 | 3.08 | 1.23 | 2.64 | 0.558 | 2.28 | 1.17 | 2.59 | 0.702 | 2.01 |
| O=c1c2ccccc2nc(-c2ccc(Cl)cc2)n1O | – | > 100 | – | 91.2 | – | 9.61 | – | 63.4 | – | > 100 | – | 57 | – | > 100 | – | > 100 | – | > 100 | – | > 100 |
| Cc1ccccc1NC(=O)NC(CC(N)=O)c1ccc2c(c1)nc(-c1cccc(Oc3ccc(C(C)(C)C)cc3)c1)n2CCCN1CCCCC1C (stereo not given) | 5.91 | 13.4 | 1.97 | 4.46 | 3.25 | 9.82 | 1.92 | 3.54 | 2.34 | 5.27 | 1.88 | 3.57 | 5.21 | 12 | 3.94 | 12 | 2.91 | 7.13 | 1.73 | 3.19 |
